Measured values from patent publication US20230029496A1, “AMINO ACID ALTERNATIVE CURING SYSTEM” (THE TEXAS A&M UNIVERSITY SYSTEM, priority 2019, published 2023).
Several values for one entry are separate records, joined by “and”; a condition that tells them apart may be missing. Equal entries are not always repeated. Marks after values point to notes of the source that are not given here.

Key:
[1] = tested on: Nitric Oxide Synthase (NOS) system; assay: Residual nitrite in pre-rigor pork semimembranosus muscle immersed in L-arginine (first study); assay type: biochemical
Description: Pre-rigor pork Semimembranosus muscle samples were collected from four pre-rigor pork carcasses (n=4) harvested at the Rosenthal Meat Science and Technology Center at Texas A&M University at six separate times over a four day period (N=24). Muscle samples were treated with five concentrations of L-arginine, using water as the control treatment. Samples were either subjected to heat treatment (water bath increasing to 62° C. for 60 min) or left raw/fresh (uncooked). All treated muscle samples were analyzed for residual nitrite, and cooked samples were analyzed for nitrosylhemochromagen levels to determine curing efficiency.
Solutions were prepared according to Wu to stabilize the muscle samples for enclosed reactions within the 50 mL conical tubes. […] The NaCl was used to stabilize any reaction and the NaE was used to accelerate any cure reaction that could occur. The L-arginine was prepared separately so as to be administered in specific concentration once the five grams of meat was added to the reaction tubes by creating dilutions of millimolar concentrations at 0 mM, 2 mM, 4 mM, 8 mM, 16 mM, and 32 mM.
The procedures for determining the following sample reactions followed the procedures outlined by Wu 24 5 g muscle samples were individually placed into 50 mL conical tubes.
Residual nitrite was determined using the modified AOAC Official Method 973.31 (Nitrite Analysis in Cured Meats Procedure) and was verified by Wu with sample (plasma or serum) preparation for amino acid analysis by HPLC and determination of nitrite (UV/VIS Spectrophotometric Method). This procedure was used to determine any residual nitrite found in samples. All samples were tested three weeks after being held in a −30° C. freezer then thawed in a 0° C. cooler.
Procedure: • 1. Weigh 5 g (±0.01) of finely comminuted and thoroughly mixed sample into a 100 ml beaker. • 2. Add approximately 40 ml distilled water and heat to 80° C. Use a glass rod to break up all lumps and mix thoroughly. • 3. Transfer the heated solution to a 500 ml volumetric flask. Quantitatively wash the beaker and rod with successive portions of the hot distilled water, adding all washings to the flask (approximately 300 ml). • 4. Transfer the flask to a steam bath (˜100° C.) and shake occasionally for 2 hour. After cooling to room temperature, bring the volume to 500 ml with distilled water and remix. Filter through two Whatman No. 2 filter papers into flask and mix solution thoroughly (discard the residue). Then transfer 25 ml of the filtrate into a 50 ml volumetric flask then add 2.5 ml sulfanilamide reagent, mix thoroughly. • 5. After setting for 5 min, add 2.5 ml NED reagent, mix. Dilute to volume with distilled water, mix and set for another 15 min to let the color develop. • 6. Transfer a portion of the solution to the cuvette and read absorbance at 540 nm against a blank of 45 ml distilled water+2.5 ml sulfanilamide reagent+2.5 ml NED reagent.
• 1. Pipette 0.5 mL of plasma (or serum) to a 12×75 mm polypropylene tube. Place the tube in ice. • 2. Add 0.5 mL of […] to the tube (the tube remains in ice). • 3. Mix the tube well (using a vortex). • 4. After 2 min, add 0.25 mL of 2 M K2CO3 to the tube (the tube remains in ice). • 5.

[2] = tested on: Nitric Oxide Synthase (NOS) system; assay: Residual nitrite in pre-rigor and post-rigor pork semimembranosus muscle immersed in L-arginine (Example 13); assay type: biochemical
Description: Pre-rigor pork semimembranosus muscle samples were collected from four pre-rigor pork carcasses (n=4) harvested at the Rosenthal Meat Science and Technology Center at Texas A&M University at three separate times over a three day period (N=12). Post-rigor pork semimembranosus muscle samples were collected from the same carcasses eighteen hours after harvesting to ensure the full onset and completion of rigor (N=12). Muscle samples were treated with the same five concentrations of L-arginine and water as the control treatment. Samples were either heated (water bath increasing from room temperature ([…]) to 62° C. for 60 min) or left raw/fresh (uncooked). The overall experiment was designed as a 6 (5 L-arginine concentrations and a control) by 4 (pork carcasses) by 2 (heating treatment (raw and cooked)) factorial replicated 3 times (collection) (N=144) for both pre-rigor and post-rigor muscle types.
Solutions were prepared by Wu's specifications to stabilize the muscle samples for enclosed reactions within 50 mL conical tubes. […] The NaCl was used to suspend and stabilize any reaction and the NaE was used to accelerate the cure reaction. The L-arginine (L-arginine monohydrochloride, Ajinomoto Inc., Raleigh, N.C.) concentrations were prepared separately for administration as a treatment once the five grams of meat were added to the reaction tubes at dilutions of 0 mM, 2 mM, 4 mM, 8 mM 16 mM, and 32 mM.
Residual nitrite was determine using the modified AOAC Official Method 973.31 (Nitrite Analysis in Cured Meats Procedure) and was verified by Wu with sample (plasma or serum) preparation for amino acid analysis by HPLC and determination of nitrite (UV/VIS Spectrophotometric Method). This method was used to best determine any residual nitrite found in samples to compensate for both pre-rigor and post rigor effects on detecting residual nitrite. All samples were tested one week later after being held in a −30° C. freezer then thawed in a 0° C. cooler.

[3] = 2 mM L-arginine, cooked supernatant
[4] = 4 mM L-arginine, cooked supernatant
[5] = 8 mM L-arginine, cooked supernatant
[6] = 16 mM L-arginine, cooked pellet
[7] = 16 mM L-arginine, cooked supernatant
[8] = 32 mM L-arginine, cooked pellet
[9] = 32 mM L-arginine, cooked supernatant
[10] = 2 mM L-arginine, raw supernatant, stored one week at -30° C.
[11] = 4 mM L-arginine, raw supernatant, stored one week at -30° C.
[12] = 8 mM L-arginine, raw supernatant, stored one week at -30° C.
[13] = 16 mM L-arginine, raw supernatant, stored one week at -30° C.
[14] = 32 mM L-arginine, raw supernatant, stored one week at -30° C.

With N=C(N)NCCC[C@H](N)C(=O)O [L-arginine] the “Residual Nitrite” value ([1]; 2 mM L-arginine, cooked pellet) was 10.46 ppm and 10.46^a ppm, the “Residual Nitrite” value [1, 3] was 5.81 ppm and 5.81^ab ppm and the “Residual Nitrite” value ([1]; 2 mM L-arginine, raw supernatant, stored 3 weeks at -30° C.) was 4.53^b ppm. The “Residual Nitrite” value ([1]; 4 mM L-arginine, cooked pellet) was 9.35 ppm and 9.35^a ppm, the “Residual Nitrite” value [1, 4] was 8.79 ppm and 8.79^a ppm and the “Residual Nitrite” value ([1]; 4 mM L-arginine, raw supernatant, stored 3 weeks at -30° C.) was 8.00 ppm and 8.00^ab ppm. The “Residual Nitrite” value ([1]; 8 mM L-arginine, cooked pellet) was 11.22 ppm and 11.22^a ppm, the “Residual Nitrite” value [1, 5] was 5.85 ppm and 5.85^ab ppm and the “Residual Nitrite” value ([1]; 8 mM L-arginine, raw supernatant, stored 3 weeks at -30° C.) was 9.66 ppm and 9.66^ab ppm. The “Residual Nitrite” value [1, 6] was 14.06 ppm and 14.06^a ppm, the “Residual Nitrite” value [1, 7] was 3.19 ppm and 3.19^ab ppm and the “Residual Nitrite” value ([1]; 16 mM L-arginine, raw supernatant, stored 3 weeks at -30° C.) was 9.23 ppm and 9.23^ab ppm. For the same compound, the “Residual Nitrite” value [1, 8] was 15.69 ppm and 15.69^a ppm, the “Residual Nitrite” value [1, 9] was 7.86 ppm and 7.86^ab ppm and the “Residual Nitrite” value ([1]; 32 mM L-arginine, raw supernatant, stored 3 weeks at -30° C.) was 14.34 ppm and 14.34^a ppm. The “Residual Post rigor Nitrite” value ([2]; 2 mM L-arginine, cooked pellet) was 19.36^b ppm, the “Residual Pre-rigor Nitrite” value ([2]; 2 mM L-arginine, cooked pellet) was 22.87^a ppm and the “Residual Post rigor Nitrite” value [2, 3] was 61.12 ppm and 61.12^a ppm. The “Residual Pre-rigor Nitrite” value [2, 3] was 50.72 ppm and 50.72^a ppm, the “Residual Post rigor Nitrite” value [2, 10] was 9.42^a ppm and the “Residual Pre-rigor Nitrite” value [2, 10] was 15.26^a ppm. The “Residual Post rigor Nitrite” value ([2]; 4 mM L-arginine, cooked pellet) was 23.72 ppm and 23.72^ab ppm, the “Residual Pre-rigor Nitrite” value ([2]; 4 mM L-arginine, cooked pellet) was 22.64^a ppm and the “Residual Post rigor Nitrite” value [2, 4] was 61.93 ppm and 61.93^a ppm. For the same compound, the “Residual Pre-rigor Nitrite” value [2, 4] was 47.72 ppm and 47.72^ab ppm, the “Residual Post rigor Nitrite” value [2, 11] was 14.50^a ppm and the “Residual Pre-rigor Nitrite” value [2, 11] was 34.93^a ppm. The “Residual Post rigor Nitrite” value ([2]; 8 mM L-arginine, cooked pellet) was 22.06 ppm and 22.06^ab ppm, the “Residual Pre-rigor Nitrite” value ([2]; 8 mM L-arginine, cooked pellet) was 19.70^a ppm and the “Residual Post rigor Nitrite” value [2, 5] was 52.69 ppm and 52.69^ab ppm. For the same compound, the “Residual Pre-rigor Nitrite” value [2, 5] was 38.63 ppm and 38.63^ab ppm, the “Residual Post rigor Nitrite” value [2, 12] was 21.83^a ppm and the “Residual Pre-rigor Nitrite” value [2, 12] was 44.58^a ppm. For the same compound, the “Residual Post rigor Nitrite” value [2, 6] was 22.15 ppm and 22.15^ab ppm, the “Residual Pre-rigor Nitrite” value [2, 6] was 31.94^a ppm and the “Residual Post rigor Nitrite” value [2, 7] was 53.74 ppm and 53.74^a ppm. The “Residual Pre-rigor Nitrite” value [2, 7] was 24.62 ppm and 24.62^ab ppm, the “Residual Post rigor Nitrite” value [2, 13] was 23.54^a ppm and the “Residual Pre-rigor Nitrite” value [2, 13] was 11.92^a ppm. For the same compound, the “Residual Post rigor Nitrite” value [2, 8] was 32.87 ppm and 32.87^a ppm, the “Residual Pre-rigor Nitrite” value [2, 8] was 40.14 ppm and 40.14^a ppm and the “Residual Post rigor Nitrite” value [2, 9] was 52.90 ppm and 52.90^ab ppm. The “Residual Pre-rigor Nitrite” value [2, 9] was 20.08 ppm and 20.08^ab ppm, the “Residual Post rigor Nitrite” value [2, 14] was 16.51^a ppm and the “Residual Pre-rigor Nitrite” value [2, 14] was 22.09^a ppm. For the same compound, the Residual Nitrite ([2]; pre-rigor raw supernatant, range over all concentrations of L-arginine) was 11.92-44.58 ppm and the residual nitrite levels ([2]; raw post rigor supernatant, range over all concentrations of L-arginine) was 9.06-23.54 ppm.
